Results published in patent US10532065B2, “Bisphosphonic acid derivative and application for same” (NAGASAKI UNIVERSITY, priority 2014, dated 2020).
Read-outs that look alike come from different tables or passages of the source.

Experiments:
Type in all cases: cell-based
EJ-1 cells = experiment: EJ-1 cell growth inhibition (direct antitumor action, CellTiterGlo); conditions: EJ-1 (bladder cancer) growth inhibition, 4 days culture
Experimental: (§1) The direct antitumor action of bisphosphonic acid POM ester and bisphosphonic acid was studied by comparison using U937.
(§2) The direct antitumor action of bisphosphonic acid POM ester derivatives and bisphosphonic acids was studied by comparison using EJ-1. It was performed in the same manner as in Experimental Example 1 except that EJ-1 was used as the cell to be used. For recovery of the cells, a conventional EDTA trypsin treatment was performed.
as §2, with “POM esters” for “POM ester derivatives”, “Example 2” for “Example 1”
(§3) The direct antitumor action of various bisphosphonic acid POM esters was studied by comparison using U937 and EJ-1. The measurement was performed according to Experimental Example 2 and Experimental Example 4.

U937 cells = experiment: U937 cell growth inhibition (direct antitumor action, CellTiterGlo); conditions: U937 cell growth inhibition, 4 days culture
Experimental: as §1, §3

EJ-1 cells / γδ T cells = experiment: TNF-α production from γδ T cells stimulated by compound-pretreated EJ-1 cells (indirect antitumor action, ELISA); conditions: EJ-1 pretreated 4 hr with compound, 16 hr with γδ T cells, TNF-α ELISA, read-out: TNF-α50
Experimental: The indirect antitumor action of bisphosphonic acid POM esters and bisphosphonic acids was studied by comparison using EJ-1. In principle, EJ-1 is treated with a compound, washed, and reacted with γδ T cells, and the cytotoxic ability is studied by comparison, by quantifying TNF-α produced by γδ T cells during cell disordering. TNF-α is generally used as an index of γδ T cell induction ability and/or proliferative capacity, and γδ T cells are considered to be induced and/or proliferated in proportion to the TNF-α amount (Journal of Immunology, 154, 5986-5994 (1995)). Since the produced TNF-α is what is called a tumor necrosis factor, it is considered to have an action to lower proliferation of cancer cells or induce cell death.
Thereto was added a solution (500 μl) of compounds 3, 5, 6, 7, which are bisphosphonic acid POM ester derivatives, obtained by serially diluting 10 mM stock solution 10-fold from 20 μM, or a solution (500 μl) of bisphosphonic acid 10, 12, 13, 14 compound obtained by serially diluting 10-fold from 200 μM, and the cells were suspended well. These conical tubes were stood at 37° C. for 4 hr, and the cells were washed 3 times with 5 ml of culture medium. To these cells was added 500 μl of medium, and the cells were suspended well. […] The cell culture medium was suspended well, and the plate was centrifuged at 1,700 rpm, 4° C. for 2 min and the culture supernatant (150 μl) was taken and placed in another round-bottomed 96 well plate. The plate was frozen at −80° C. overnight, left standing at room temperature for 1 hr, stirred well and 100 μl thereof was subjected to ELISA of TNF-α. The content of TNF-α was calculated from the analytical curve of TNF-α. These were performed in triplicate, and a graph showing bisphosphonic acid POM ester derivative and the corresponding bisphosphonic acid as one pair was plotted. […] The results of bisphosphonic acid POM ester derivative are shown by -●-, and the results of bisphosphonic acid are shown by -◯-.
The indirect antitumor action of bisphosphonic acid POM esters and bisphosphonic acids was quantitatively studied by comparison using EJ-1. […] Thereto was added a solution (500 μl) of a bisphosphonic acid POM ester derivative obtained by serially diluting 10 mM stock solution 10-fold from 20 μM, or a bisphosphonic acid solution (500 μl) serially diluted 10-fold from 200 μM was added, and the cells were suspended well. These conical tubes were stood at 37° C. for 4 hr, and the cells were washed 3 times with 5 ml of culture medium. To these cells was added 500 μl of medium, and the cells were suspended well. […] The cell culture medium was suspended well, and the plate was centrifuged at 1,700 rpm, 4° C. for 2 min and the culture supernatant (150 μl) was taken and placed in another round-bottomed 96 well plate. The plate was frozen at −80° C. overnight, left standing at room temperature for 1 hr, stirred well and 100 μl thereof was subjected to ELISA of TNF-α. The content of TNF-α was calculated from the analytical curve of TNF-α. These were performed in triplicate, and a half of the concentration of compounds 1-7, which are bisphosphonic acid POM ester derivatives, and compounds 8-14, which are bisphosphonic acids, necessary for producing the maximum amount of TNF-α from γδ T cells was calculated as TNF-α50, and summarized in Table 6.
Therefore, the TNF-α50 value of various bisphosphonic acid POM ester derivatives was calculated. […] Thereto was added a solution (500 μl) of compounds 1-7 and 15-39, which are bisphosphonic acid POM ester derivatives, and compound 42, which is other bisphosphonic acid ester derivative, obtained by serially diluting 10 mM stock solution 10-fold from 20 μM, and the cells were suspended well. These conical tubes were stood at 37° C. for 4 hr, and the cells were washed 3 times with 5 ml of culture medium. To these cells was added 500 μl of medium, and the cells were suspended well. […]

| IC50 (EJ-1 cells) [µM] | IC50 (U937 cells) [µM] | EC50 (EJ-1 cells / γδ T cells) [µM] | IC50 (EJ-1 cells; EJ1, 96 h) [µM] | IC50 (U937 cells; Homo sapiens, U-937, 96 h) [µM] | EC50 (EJ-1 cells / γδ T cells; EJ1) [µM] | Compound |
| --- | --- | --- | --- | --- | --- | --- |
| 4.8 | 3.3 | 0.38 |  |  |  | CC(C)(C)C(=O)OCOP(=O)(OCOC(=O)C(C)(C)C)C(CNc1ccc(Cl)cn1)P(=O)(OCOC(=O)C(C)(C)C)OCOC(=O)C(C)(C)C [Compound 18, tetrakispivaloyloxymethyl 2-(5-chloropyridin-2-ylamino)ethylidene-1,1-bisphosphonate] |
|  |  |  | 970 | 1100 | > 100 | O=P(O)(O)C(CNc1ncccc1Br)P(=O)(O)O [Compound 9, 2-(3-bromopyridin-2-ylamino)ethylidene-1,1-bisphosphonic Acid, reference compound] |
| 10 | 6.6 | > 10 |  |  |  | CC(C)(C)C(=O)OCOP(=O)(OCOC(=O)C(C)(C)C)C(CNc1ccc2ccccc2n1)P(=O)(OCOC(=O)C(C)(C)C)OCOC(=O)C(C)(C)C [Compound 30, tetrakispivaloyloxymethyl 2-(quinolin-2-ylamino)ethylidene-1,1-bisphosphonate] |
| 4.3 | 2.6 | > 10 |  |  |  | CC(C)(C)C(=O)OCOP(=O)(OCOC(=O)C(C)(C)C)C(CNc1ccc(C(F)(F)F)cn1)P(=O)(OCOC(=O)C(C)(C)C)OCOC(=O)C(C)(C)C [Compound 17, tetrakispivaloyloxymethyl 2-(5-trifluoromethylpyridin-2-ylamino)ethylidene-1,1-bisphosphonate] |
